The values that follow come from patent US7582676B2, “2-phenylpyran-4-one derivatives as selective COX-2 inhibitors” (Laboratorios Almirall, S.A., priority 2003, dated 2009).

A word on the IC50: it is the concentration at which inhibition is half-maximal.

Assay [1] addresses T1, COX-1 (Homo sapiens, UniProt P23219).
T1 construct: Fresh blood from healthy volunteers; endogenous in cells; host or cells: human whole blood of healthy volunteers, stimulated with calcium ionophore A23187; TXB2 read-out
Put plainly: COX-1 activity in human whole blood (TXB2, calcium ionophore A23187). It is filed as cell-based. The settings on record: 24 h at 37° C., A23187 25 μM, TXB2 by EIA. Here is the method:
(§1) COX-1 and COX-2 Activities in Human Whole Blood
Fresh blood from healthy volunteers who had not taken any non-steroidal anti-inflammatory drugs for at least 7 days prior to blood extraction was collected in heparinized tubes (20 units of heparin per ml). For the COX-1 activity determination, 500 μl aliquots of blood were incubated with either 5 μl vehicle (dimethylsulphoxide) or 5 μl of a test compound for 24 h at 37° C. Calcium ionophore A23187 (25 μM) was added 20 min before stopping the incubation. Plasma was separated by centrifugation (10 min at 13000 rpm) and kept at −30° C. until TXB2 levels were measured using an enzyme immunoassay kit (EIA).
The effect of the compounds was evaluated by incubating each compound at five to six different concentrations with triplicate determinations. IC50 values were obtained by non-linear regression using InPlot, GraphPad software on an IBM computer.

Assay [2] addresses T2, COX-2 (Homo sapiens, UniProt P35354).
T2 construct: in the presence of LPS (10 μg/ml) for 24 h at 37° C. in order to induce the COX-2 expression; endogenous in cells; host or cells: human whole blood of healthy volunteers, LPS-stimulated for 24 h; PGE2 read-out
T2 sequence (P35354 18-604): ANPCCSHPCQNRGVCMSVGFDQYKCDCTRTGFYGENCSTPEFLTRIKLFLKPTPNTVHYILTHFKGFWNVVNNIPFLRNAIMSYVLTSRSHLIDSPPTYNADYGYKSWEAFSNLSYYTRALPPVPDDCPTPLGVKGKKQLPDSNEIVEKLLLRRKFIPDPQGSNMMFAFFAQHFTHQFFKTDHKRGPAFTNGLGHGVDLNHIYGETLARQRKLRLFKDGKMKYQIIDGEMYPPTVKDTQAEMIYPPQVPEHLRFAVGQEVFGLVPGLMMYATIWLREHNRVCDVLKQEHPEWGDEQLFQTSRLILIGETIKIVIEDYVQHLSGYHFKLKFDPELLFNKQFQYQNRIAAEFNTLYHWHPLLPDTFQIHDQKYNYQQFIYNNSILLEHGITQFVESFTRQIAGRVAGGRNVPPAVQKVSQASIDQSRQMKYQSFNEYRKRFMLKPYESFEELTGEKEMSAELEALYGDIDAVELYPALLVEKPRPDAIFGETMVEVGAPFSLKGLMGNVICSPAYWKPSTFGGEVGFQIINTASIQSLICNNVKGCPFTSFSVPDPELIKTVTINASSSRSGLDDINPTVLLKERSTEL
Put plainly: COX-2 activity in human whole blood (PGE2, LPS induced). In kind it is cell-based. To be noted: for IC50: LPS 10 μg/ml, 24 h at 37° C., PGE2 by EIA; for Ratio COX-1/COX-2: ratio of COX-1/COX-2 IC50 values. On the procedure: as §1
For the COX-2 activity determination, 500 μl aliquots of blood were incubated in the presence of LPS (10 μg/ml) for 24 h at 37° C. in order to induce the COX-2 expression (Patriagnani et al., J. Pharm. Exper. Ther. 271; 1705-1712 (1994)). Plasma was separated by centrifugation (10 min at 13000 rpm) and kept at −30° C. until PGE2 levels were measured using an enzyme immunoassay kit (EIA). […] IC50 values were obtained by non-linear regression using InPlot, GraphPad software on an IBM computer.

T1 sequence (P23219 24-599): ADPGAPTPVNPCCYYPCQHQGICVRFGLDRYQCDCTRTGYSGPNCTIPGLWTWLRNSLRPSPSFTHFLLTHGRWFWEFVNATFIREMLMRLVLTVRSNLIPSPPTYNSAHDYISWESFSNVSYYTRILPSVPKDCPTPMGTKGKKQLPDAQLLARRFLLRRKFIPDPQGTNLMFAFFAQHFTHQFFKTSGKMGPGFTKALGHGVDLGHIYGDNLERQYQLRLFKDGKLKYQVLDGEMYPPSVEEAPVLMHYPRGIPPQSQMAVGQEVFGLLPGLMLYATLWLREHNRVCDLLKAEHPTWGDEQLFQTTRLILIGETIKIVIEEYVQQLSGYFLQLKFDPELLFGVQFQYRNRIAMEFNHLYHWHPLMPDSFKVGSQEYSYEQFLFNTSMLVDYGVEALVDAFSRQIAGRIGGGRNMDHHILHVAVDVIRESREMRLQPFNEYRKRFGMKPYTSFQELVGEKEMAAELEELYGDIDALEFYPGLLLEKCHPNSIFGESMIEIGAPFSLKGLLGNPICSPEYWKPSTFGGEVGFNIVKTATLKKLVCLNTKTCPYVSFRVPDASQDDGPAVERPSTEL

With `Cc1cc(=O)c(Oc2ccc(Br)cc2F)c(-c2ccc([S+](C)[O-])cc2)o1` (single isomer, unassigned; enantiomer 7a) [Example 8, 3-4-Bromo-2-fluorophenoxy)-6-methyl-2-[4-methylsulfinyl)phenyl]-4H-pyran4-one-Enantiomer 7a], the IC50 in assay [1] was 32100 nM. Besides, in assay [2], the IC50 amounted to 1580 nM and the “Ratio COX-1/COX-2” value is 20.

With `Cc1cc(=O)c(Oc2ccc(Br)cc2F)c(-c2ccc([S+](C)[O-])cc2)o1` (racemic) [Example 7, 3-(4-Bromo-2-fluorophenoxy)-6-methyl-2-[4-(methylsulfinyl)phenyl]-4H-pyran-4-one], the IC50 in assay [1] turned out to be 77000 nM. In assay [2], the IC50 is 570 nM and the “Ratio COX-1/COX-2” value turned out to be 135.

As to `Cc1cc(=O)c(Oc2ccc(F)cc2F)c(-c2ccc([S+](C)[O-])cc2)o1` (racemic) [Example 1, 3-(2,4-Difluorophenoxy)-6-methyl-2-[4-(methylsulfinyl)phenyl]-4H-pyran4-one], in assay [2], the half-inhibitory concentration (IC50) was 960 nM and the “Ratio COX-1/COX-2” value stood at 104.

On to `Cc1cc(=O)c(Oc2ccc(F)cc2F)c(-c2ccc([S+](C)[O-])cc2)o1` (single isomer, unassigned; enantiomer 1a) [Example 2, 3-(2,4-Difluorophenoxy)-6-methyl-2-[4-(methylsulfinyl)phenyl]-4H-pyran-4-one-Enantiomer 1a], for which, in assay [2], the IC50 came out at 2100 nM and the “Ratio COX-1/COX-2” value was 48.

Turning to `Cc1cc(=O)c(Oc2ccc(F)cc2F)c(-c2ccc([S+](C)[O-])cc2)o1` (single isomer, unassigned; enantiomer 1b) [Example 3, 3-(2,4-Difluorophenoxy)-6-methyl-2-[4-(methylsulfinyl)phenyl]-4H-pyran4-one-Enantiomer 1b], the IC50 in assay [1] was found to be 86600 nM. In assay [2], the IC50 is 270 nM and the “Ratio COX-1/COX-2” value is 321.

Take `Cc1cc(=O)c(Oc2ccc(Br)cc2F)c(-c2ccc([S+](C)[O-])cc2)o1` (single isomer, unassigned; enantiomer 7b) [Example 9, 3-4-Bromo-2-fluorophenoxy)-6-methyl-2-[4-(methylsulfinyl)phenyg]4H-pyran-4-one-Enantiomer 7b]: in assay [1], the IC50 was 73100 nM. In assay [2], half-maximal inhibition (IC50) required 170 nM and the “Ratio COX-1/COX-2” value was 430.

As for `Cc1cc(=O)c(Oc2ccc(Cl)cc2F)c(-c2ccc([S+](C)[O-])cc2)o1` (single isomer, unassigned; enantiomer 4a) [Example 5, 3-4-Chloro-2-fluorophonoxy)-6-methyl-2-[4-(methylsuffinyl)phenyl]-4H-pyran-4-one-Enantiomer 4a], in assay [1], the IC50 amounted to 72900 nM.
